The source of these data is article PMC11089503, “Exploring Subsite Selectivity within Plasmodium vivaxN-Myristoyltransferase Using Pyrazole-Derived Inhibitors” (Journal of Medicinal Chemistry, 2024).

Where two headings read alike, the source gives them in different places.

In assay [1] the target is T1, PvNMT (Plasmodium vivax, UniProt A5K1A2). The assay is described as follows: NMT activity assay (CPM fluorescence detection of free CoA), PvNMT.
Assay [2] concerns the target T2, HsNMT Isoform 1 (Homo sapiens, UniProt P30419).
T2 sequence (P30419 1-496): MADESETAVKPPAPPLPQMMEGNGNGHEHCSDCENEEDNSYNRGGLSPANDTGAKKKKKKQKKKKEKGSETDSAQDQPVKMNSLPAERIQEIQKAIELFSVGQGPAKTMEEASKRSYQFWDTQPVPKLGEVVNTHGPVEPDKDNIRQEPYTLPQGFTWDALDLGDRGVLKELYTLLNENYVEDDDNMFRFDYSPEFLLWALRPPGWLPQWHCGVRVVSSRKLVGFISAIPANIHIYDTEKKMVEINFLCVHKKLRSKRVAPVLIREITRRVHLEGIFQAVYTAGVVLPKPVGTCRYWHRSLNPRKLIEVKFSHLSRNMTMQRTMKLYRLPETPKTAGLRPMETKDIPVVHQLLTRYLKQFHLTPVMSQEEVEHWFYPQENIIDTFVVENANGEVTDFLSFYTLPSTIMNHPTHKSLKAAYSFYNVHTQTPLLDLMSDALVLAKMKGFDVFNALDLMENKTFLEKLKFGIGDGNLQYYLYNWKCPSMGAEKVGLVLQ
Description: NMT activity assay (CPM fluorescence detection of free CoA), HsNMT.

Assay [3] addresses T1, PvNMT. The following applies: cited from earlier work.
The test system of assay [4] is HsNMT1/2. Further details: method as in PMID 29760414. The following applies: cited from earlier work.

T1 sequence (A5K1A2 entry or part of it): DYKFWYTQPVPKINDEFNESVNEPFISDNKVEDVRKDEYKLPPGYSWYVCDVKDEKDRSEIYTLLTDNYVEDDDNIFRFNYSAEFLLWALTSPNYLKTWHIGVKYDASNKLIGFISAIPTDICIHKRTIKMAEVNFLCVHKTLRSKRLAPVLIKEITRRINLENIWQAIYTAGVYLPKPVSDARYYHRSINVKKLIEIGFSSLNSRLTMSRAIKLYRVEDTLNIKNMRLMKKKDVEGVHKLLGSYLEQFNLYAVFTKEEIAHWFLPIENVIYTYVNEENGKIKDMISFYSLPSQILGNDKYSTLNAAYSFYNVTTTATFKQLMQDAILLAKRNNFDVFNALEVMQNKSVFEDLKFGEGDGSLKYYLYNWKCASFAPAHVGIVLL

Regarding `Cc1c(CCOc2ccccc2-c2ccnc(N3CCNCC3)c2)c(C(=O)Nc2cccnc2)nn1C` [Compound 8a, 1,5-Dimethyl-4-(2-(2-(2-(piperazin-1-yl)pyridin-4-yl)phenoxy)ethyl)-N-(pyridin-3-yl)-1H-pyrazole-3-carboxamide], the figures for the IC50 in assay [1] and in assay [2] were 0.506 µM and 2.52 µM, respectively. The matching figures for `Cc1c(CCOc2ccccc2-c2ccnc(N3CCNCC3)c2)c(C(=O)N2CCOCC2)nn1C` [Compound 8b, (1,5-Dimethyl-4-(2-(2-(2-(piperazin-1-yl)pyridin-4-yl)phenoxy)ethyl)-1H-pyrazol-3-yl)(morpholino)methanone]: 0.024 µM and 0.763 µM. The like results for `Cc1c(CCOc2ccccc2-c2ccnc(N3CCNCC3)c2)c(C(=O)NCC(=O)O)nn1C` [Compound 8c, (1,5-Dimethyl-4-(2-(2-(2-(piperazin-1-yl)pyridin-4-yl)phenoxy)ethyl)-1H-pyrazole-3-carbonyl)glycine] were, in that order, 0.147 µM and 0.116 µM.

`Cc1c(CCOc2ccccc2-c2ccnc(N3CCNCC3)c2)c(C(=O)NCCN)nn1C` [Compound 8f, N-(2-Aminoethyl)-1,5-dimethyl-4-(2-(2-(2-(piperazin-1-yl)pyridin-4-yl)phenoxy)ethyl)-1H-pyrazole-3-carboxamide]: the IC50 (as a rule, the midpoint of a concentration-inhibition curve) was 0.089 µM in assay [1] and 0.103 µM in assay [2]. For `CC(=O)CNC(=O)c1nn(C)c(C)c1CCOc1ccccc1-c1ccnc(N2CCNCC2)c1` [Compound 8g, 1,5-Dimethyl-N-(2-oxopropyl)-4-(2-(2-(2-(piperazin-1-yl)pyridin-4-yl)phenoxy)ethyl)-1H-pyrazole-3-carboxamide], the IC50 was 0.032 µM in assay [1] and 1.59 µM in assay [2]. Also, in assay [1] (calculated as HsNMT IC50/PvNMT IC50), the “SI (enzyme selectivity)” value is listed as greater than 31. For the compound `Cc1c(CCOc2ccccc2-c2ccnc(N3CCNCC3)c2)c(C(=O)NCCO)nn1C` [Compound 8h, N-(2-Hydroxyethyl)-1,5-dimethyl-4-(2-(2-(2-(piperazin-1-yl)pyridin-4-yl)phenoxy)ethyl)-1H-pyrazole-3-carboxamide], the IC50 in assay [1] amounted to 0.039 µM; in assay [2], 0.504 µM.

`COC(=O)CNC(=O)c1nn(C)c(C)c1CCOc1ccccc1-c1ccnc(N2CCNCC2)c1` [Compound 8i, Methyl (1,5-Dimethyl-4-(2-(2-(2-(piperazin-1-yl)pyridin-4-yl)phenoxy)ethyl)-1H-pyrazole-3-carbonyl)glycinate]: the IC50 in assay [1] was 0.02 µM; in assay [2], 0.057 µM. Turning to `Cc1c(CCOc2cccnc2-c2ccnc(N3CCNCC3)c2)c(C(=O)Nc2cccnc2)nn1C` [Compound 9a, 1,5-Dimethyl-4-(2-((2′-(piperazin-1-yl)-[2,4′-bipyridin]-3-yl)oxy)ethyl)-N-(pyridin-3-yl)-1H-pyrazole-3-carboxamide], the half-maximal inhibitory concentration (IC50) in assay [1] stood at 1.02 µM. On to `Cc1c(CCOc2cccnc2-c2ccnc(N3CCNCC3)c2)c(C(=O)N2CCOCC2)nn1C` [Compound 9b, (1,5-Dimethyl-4-(2-((2′-(piperazin-1-yl)-[2,4′-bipyridin]-3-yl)oxy)ethyl)-1H-pyrazol-3-yl)(morpholino)methanone], for which the figures for the half-inhibitory concentration (IC50) in assay [1] and in assay [2] were 0.046 µM and 1.65 µM, respectively. `Cc1c(CCOc2cccnc2-c2ccnc(N3CCNCC3)c2)c(C(=O)NCC(=O)O)nn1C` [Compound 9c, (1,5-Dimethyl-4-(2-((2′-(piperazin-1-yl)-[2,4′-bipyridin]-3-yl)oxy)ethyl)-1H-pyrazole-3-carbonyl)glycine]: the IC50 in assay [1] worked out at 0.23 µM; in assay [2] it was 11.1 µM. Turning to `Cc1c(CCOc2cccnc2-c2ccnc(N3CCNCC3)c2)c(C(=O)NCC(N)=O)nn1C` [Compound 9d, N-(2-Amino-2-oxoethyl)-1,5-dimethyl-4-(2-((2′-(piperazin-1-yl)-[2,4′-bipyridin]-3-yl)oxy)ethyl)-1H-pyrazole-3-carboxamide], the figures for the IC50 in assay [1] and in assay [2] were 0.181 µM and 11 µM, respectively. `Cc1c(CCOc2ccc3ccccc3c2-c2ccnc(N3CCNCC3)c2)c(C(=O)Nc2cccnc2)nn1C` [Compound 10a, 1,5-Dimethyl-4-(2-((1-(2-(piperazin-1-yl)pyridin-4-yl)naphthalen-2-yl)oxy)ethyl)-N-(pyridin-3-yl)-1H-pyrazole-3-carboxamide] came in with an IC50 in assay [1] of 5.07 µM. Turning to `Cc1c(CCOc2ccc3ccccc3c2-c2ccnc(N3CCNCC3)c2)c(C(=O)N2CCOCC2)nn1C` [Compound 10b, (1,5-Dimethyl-4-(2-((1-(2-(piperazin-1-yl)pyridin-4-yl)naphthalen-2-yl)oxy)ethyl)-1H-pyrazol-3-yl)(morpholino)methanone], the values for the concentration for half-maximal inhibition (IC50) in assay [1] and in assay [2] were 0.091 µM and 11.4 µM, respectively. `Cc1c(CCOc2ccc3ccccc3c2-c2ccnc(N3CCNCC3)c2)c(C(=O)NCC(=O)O)nn1C` [Compound 10c, (1,5-Dimethyl-4-(2-((1-(2-(piperazin-1-yl)pyridin-4-yl)naphthalen-2-yl)oxy)ethyl)-1H-pyrazole-3-carbonyl)glycine] gave an IC50 in assay [1] of 1.06 µM. Still for that read-out and setting: the result for `Cc1c(CCOc2ccc3ccccc3c2-c2ccnc(N3CCNCC3)c2)c(C(=O)NCC(N)=O)nn1C` [Compound 10d, N-(2-Amino-2-oxoethyl)-1,5-dimethyl-4-(2-((1-(2-(piperazin-1-yl)pyridin-4-yl)naphthalen-2-yl)oxy)ethyl)-1H-pyrazole-3-carboxamide] reads 1 µM.

On to `Cc1nn(C)c(C)c1CCOc1cc(F)ccc1-c1ccc2c(c1)c(CN(C)C)nn2C` [IMP-1002], for which the IC50 in assay [3] is 0.003 µM. On to `Cc1nn(C)c(C)c1CCOc1c(-c2ccc3c(c2)c(CN(C)C)nn3C)ccc(F)c1F` [IMP-1088], for which, in assay [4], the “HsNMT1/2 IC50” value is on record as “picomolar”.
